The target in experiment [1] is T1, recombinant human 17β-HSD1 (Homo sapiens, UniProt P14061).
T1 construct: made in house; host or cells: Sf9 insect cells (baculovirus, Bac to Bac Expression System)
T1 sequence (P14061 1-328): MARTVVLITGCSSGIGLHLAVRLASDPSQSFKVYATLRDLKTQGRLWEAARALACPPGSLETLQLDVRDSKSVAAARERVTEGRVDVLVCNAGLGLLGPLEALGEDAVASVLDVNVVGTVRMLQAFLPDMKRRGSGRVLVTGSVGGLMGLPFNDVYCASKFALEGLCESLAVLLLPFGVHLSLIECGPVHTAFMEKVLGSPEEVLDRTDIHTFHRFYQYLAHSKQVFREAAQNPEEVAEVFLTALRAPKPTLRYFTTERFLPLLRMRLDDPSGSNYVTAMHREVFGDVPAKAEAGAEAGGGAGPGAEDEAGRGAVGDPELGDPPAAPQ
Briefly: Inhibition of recombinant human 17β-HSD1 (HPLC assay, conversion of 3H-estrone to estradiol). The class given is biochemical. The settings on record: 0.5 h, 30 nM 3H-estrone, 1 mM NADPH, 30 min at RT, read-out: inhibition of rec. 17β-HSD1; for inhibition at 0.1 µM: 100 nM inhibitor; for inhibition at 1 µM: 1 µM inhibitor. As to the method:
Inhibition of the 17β-hydroxysteroid dehydrogenase type 1 enzyme 17β-HSD1 purification: Recombinant baculovirus was generated by the "Bac to Bac Expression System" (Invitrogen). Recombinant bacmid was transfected to Sf9 insect cells using "Cellfectin Reagent" (Invitrogen). 60h later cells were harvested; the microsomal fraction was isolated as described by Puranen et al. (1994). Aliquots were stored frozen until determination of enzymatic activity.
Assay - Inhibition of recombinant human 17β-HSD1: Recombinant protein (0.1 µg/ml) was incubated in 20 mM KH2PO4 pH 7.4 with 30 nM 3H-estrone and 1 mM NADPH for 30 min at RT, in the presence of potential inhibitors at concentrations of 1 µM or 0.1 µM. Inhibitor stock solutions were prepared in DMSO. Final concentration of DMSO was adjusted to 1 % in all samples. The enzyme reaction was stopped by addition of 10 % trichloroacetic acid (final concentration). Samples were centrifuged in a microtiter plate at 4000 rpm for 10 min. Supernatants were applied to reverse phase HPLC on a Waters Symmetry C18 column, equipped with a Waters Sentry Guard column. Isocratic HPLC runs were performed at RT at a flow rate of 1 ml/min of acetonitrile:water 48:52 as running solvent. Radioactivity was monitored in the eluate by a Packard Flow Scintillation Analyzer. Total radioactivity for estrone and estradiol were determined in each sample and percent conversion of estrone to estradiol was calculated according to the following formula: [formula] [formula]
The values "% inhibition" were determined for exemplified compounds, and the results are summarized in table 4 (for 17β-HSD1). table 4: HSD 1 inhibition values in % of selected compounds of formula I

In another experiment the target is T2, 17β-HSD3 (Homo sapiens, UniProt P37058).
T2 construct: expressed in transfected cells; host or cells: MCF-7 cells stably expressing 17β-HSD3
T2 sequence (P37058 1-310): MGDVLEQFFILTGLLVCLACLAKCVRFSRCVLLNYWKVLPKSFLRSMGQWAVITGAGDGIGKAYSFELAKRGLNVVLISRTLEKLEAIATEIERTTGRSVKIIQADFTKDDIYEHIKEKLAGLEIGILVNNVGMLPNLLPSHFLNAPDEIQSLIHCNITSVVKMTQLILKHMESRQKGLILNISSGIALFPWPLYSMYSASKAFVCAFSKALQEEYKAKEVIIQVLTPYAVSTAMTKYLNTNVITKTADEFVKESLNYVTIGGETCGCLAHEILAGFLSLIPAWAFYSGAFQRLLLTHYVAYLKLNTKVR
Briefly: Inhibition of 17β-HSD3 in MCF-7 cell lines stably expressing the enzyme (HPLC, tritium labeled androstenedione). The class given is cell-based. As to conditions: MCF7, MCF-7 cells expressing 17β-HSD3, androstenedione 2 nM. The protocol:
The compounds were screened in respect of 17β-HSD3 enzyme activity in vitro on established MCF-7 cell lines, each stably expressing the 17β-HSD3 enzyme. The interconversion of substrate by 17β-HSD3 and the 17β-HSD3 inhibiting activity of chemical compounds in these cell lines were detected by HPLC system.
Varying amounts of the test compounds were incubated in the growth medium of the 17β-HSD3 expressing cells together tritium labeled androstenedione (2 nM). The medium samples were removed after exact incubation time and the reaction is stopped by trichloroacetic acid (TCA). The samples were analyzed by HPLC-coupled flow scintillation analysis.
Conversion: The 17β-HSD3 inhibiting activity of an individual test compound was calculated by comparing the conversion of a control sample without any test compound (referred to as "Negative Control") to the (reduced) conversion of the test sample containing the particular compound to be tested (referred to as "Test Sample"). [formula]
Two concentrations of each compound were used. The number of the compound refers to the numbers indicated in the Experimental Section.
The values "% inhibition" were determined for exemplified compounds, and the results are summarized in table 5 (HSD 3). table 5: 17β-HSD3 inhibition values in % of selected compounds of formula I

This note sets out measurements from EP2125859B1, “ESTRATRIENE DERIVATIVES AND THEIR USES AS 17BETA-HYDROXYSTEROID DEHYDROGENASE INHIBITORS” (Abbott Products GmbH, priority 2006, dated 2008).

The term inhibition denotes the share of the control response that was lost under treatment. Turning to `C[C@]12CC[C@@H]3c4ccc(O)cc4CC[C@H]3[C@@H]1[C@H](CCCn1cc(CCc3ccccc3)nn1)CC2=O` [Compound 8, 3-Hydroxy-15β-[3-(4-phenethyl-[1,2,3]triazol-1-yl)-propyl]-estra-1,3,5(10)-trien-17-one], in experiment [1], the inhibition at 0.1 µM is 81% and the inhibition at 1 µM was 93%. Besides, on 17β-HSD3, the inhibition at 1 µM came out at 6% and the inhibition at 10 µM was found to be 61%.
The matching figures for `C[C@]12CC[C@@H]3c4ccc(O)cc4CC[C@H]3[C@@H]1[C@H](CCn1cc(-c3ccccc3C(F)(F)F)nn1)CC2=O` [Compound 19, 3-Hydroxy-15β-{2-[4-(2-trifluoromethyl-phenyl)-[1,2,3]triazol-1-yl]-ethyl}-estra-1,3,5(10)-trien-17-one]: 71%, 87%, 11% and 52%.
On to `C[C@]12CC[C@@H]3c4ccc(O)cc4CC[C@H]3[C@@H]1[C@@H](CCCn1cc(-c3cccc(O)c3)nn1)CC2=O` [Compound 22, 3-Hydroxy-15-[3-(4-m-hydroxyphenyl-[1,2,3]triazol-1-yl)-propyl]-13-methyl-6,7,8,9,11,12,13,14,15,16-decahydro-cyclopenta[a]phenanthren-17-one], for which the inhibition at 0.1 µM in experiment [1] amounted to 48%. Moreover, the inhibition at 1 µM in experiment [1] is 86%; on 17β-HSD3 it was 82%.
Regarding `CCCCn1cc(CCCC2CC(=O)[C@@]3(C)CC[C@@H]4c5ccc(O)cc5CC[C@H]4[C@H]23)nn1` (some centres unmarked) [Compound 300, 15-[3-(1-butyl-1H-1,2,3-triazol-4-yl)propyl]-3-hydroxyestra-1(10),2,4-trien-17-one], in experiment [1], the inhibition at 0.1 µM came to 85% and the inhibition at 1 µM turned out to be 88%. Further, on 17β-HSD3, the inhibition at 1 µM worked out at 29% and at 10 µM the inhibition was 61%.
With `C[C@]12CC[C@@H]3c4ccc(O)cc4CC[C@H]3[C@@H]1[C@H](CCn1cc(-c3ccccc3F)nn1)CC2=O` [Compound 7, 3-Hydroxy-15β-{2-[4-(2-fluoro-phenyl)-[1,2,3]triazol-1-yl]-ethyl}-estra-1,3,5(10)-trien-17-one], in experiment [1], the inhibition at 0.1 µM came out at 81% and the inhibition at 1 µM was 94%. At 17β-HSD3, this compound yielded an inhibition at 1 µM of 12% and an inhibition at 10 µM of 36%.
Consider `CC(C)Cc1cn(CC[C@@H]2CC(=O)[C@@]3(C)CC[C@@H]4c5ccc(O)cc5CC[C@H]4[C@H]23)nn1` [Compound 12, 3-Hydroxy-15β-[2-(4-iso-butyl-[1,2,3]triazol-1-yl)-ethyl]-estra-1,3,5(10)-trien-17-one], for which, in experiment [1], the inhibition at 0.1 µM was 86% and the inhibition at 1 µM was found to be 92%. At 17β-HSD3, testing at 10 µM gave an inhibition of 37%.
Turning to `C[C@]12CC[C@@H]3c4ccc(O)cc4CC[C@H]3[C@@H]1[C@H](CCCc1cn(-c3ccc(F)cc3F)nn1)CC2=O` [Compound 301, 15β-{3-[1-(2,4-difluorophenyl)-1H-1,2,3-triazol-4-yl]propyl}-3-hydroxyestra-1(10),2,4-trien-17-one], in experiment [1], the inhibition at 0.1 µM turned out to be 82% and the inhibition at 1 µM turned out to be 88%. At 17β-HSD3, 1 µM produced 24% inhibition and the inhibition at 10 µM turned out to be 57%.
The matching figures for `CC(C)CCc1cn(CCC[C@@H]2CC(=O)[C@@]3(C)CC[C@@H]4c5ccc(O)cc5CC[C@H]4[C@H]23)nn1` [Compound 17, 3-Hydroxy-15β-{3-[4-(3-methyl-butyl)-[1,2,3]triazol-1-yl]-propyl}-estra-1,3,5(10)-trien-17-one]: 61%, 88%, 3% and 50%.
For the compound `C[C@]12CC[C@@H]3c4ccc(O)cc4CC[C@H]3[C@@H]1[C@H](CCCc1cn(-c3ccc(F)cc3F)nn1)CC2(F)F` [Compound 302, 15-{3-[1-(2,4-difluorophenyl)-1H-1,2,3-triazol-4-yl]propyl}-17,17-difluoroestra-1(10),2,4-trien-3-ol], in experiment [1], the inhibition at 0.1 µM came to 88% and the inhibition at 1 µM came to 96%. On 17β-HSD3, this compound showed an inhibition at 1 µM of 13% and an inhibition at 10 µM of 70%.
In the same order, the values of `CC(C)CCc1cn(CC[C@@H]2CC(=O)[C@@]3(C)CC[C@@H]4c5ccc(O)cc5CC[C@H]4[C@H]23)nn1` [Compound 4, 3-Hydroxy-15β-{2-[4-(3-methyl-butyl)-[1,2,3]triazol-1-yl]-ethyl}-estra-1,3,5(10)-trien-17-one] are 92%, 96%, 5% and 40%.
